This is an account of results in US20110172297A1, “Oxopiperdinyl And Pyranyl Sulfonamides and Pharmaceutical Compositions Thereof” (Pfizer Inc, priority 2008, published 2011).

As a reminder, the EC50 is the concentration needed to bring the measured effect to its halfway point.

The test system of this assay is AMPA receptors. Put plainly: AMPA ES cell FLIPR screen (AMPA Potentiator Assay). The class given is cell-based. Particulars: murine ES cell-derived neurons, FLIPR Fluo-4 calcium signal, 32 uM AMPA challenge; values marked * are the geometric mean of 2-9 EC50 determinations. As for the experimental part: The murine ES cell line used was E14-Sx1-16C, which has a targeted mutation in the Sox1 gene, a neuroectodermal marker, that offers G418 resistance when the Sox1 gene is expressed (Stem Cell Sciences). ES cells were maintained undifferentiated as previously described (Roach). […] ES cells were plated on gelatin-coated dishes (BD Biosciences), the media was changed daily and the cells were dissociated with 0.05% Trypsin EDTA (Invitrogen) every other day.
Embryoid Body Formation: Prior to embryoid body (EB) formation the ES cells were weaned from FBS onto Knockout Serum Replacement (KSR) (Invitrogen). To form EBs, ES cells were dissociated into a single cell suspension, then 3×10^6 cells were plated in bacteriology dishes (Nunc 4014) and grown as a suspension culture in NeuroEB-I medium that consisted of Knockout™ D-MEM (Invitrogen), supplemented with 10% KSR (Invitrogen), 0.2 mM L-Glutamine (Invitrogen), 0.1 mM MEM non-essential amino acids (Invitrogen), 30 μg/ml Gentamicin (Invitrogen), 1000 u/ml ESGRO (Chemicon), 0.1 mM 2-Mercaptoethanl (Sigma) and 150 ng/ml Transferrin (Invitrogen). The plates were put on a Stovall Belly Button shaker in an atmospheric oxygen incubator. The media was changed on day 2 of EB formation with NeuroEB-I and on day 4 with NeuroEB-II (NeuroEB-I plus 1 μg/ml mNoggin [R&D Systems]).
Neuronal Precursor Selection and Expansion: On day 5 of EB formation, EBs were dissociated with 0.05% Trypsin EDTA, and 4×10^6cells/100 mm dish were plated on Laminin coated tissue culture dishes in Neuroll-G418 medium that consisted of a base medium of a 1:1 mixture of D-MEM/F12 supplemented with N2 supplements and NeuroBasal Medium supplemented with B27 supplement and 0.1 mM L-Glutamine (all from Invitrogen). The base medium was then supplemented with 10 ng/ml bFGF (Invitrogen), 1 μg/ml mNoggin, 500 ng/ml SHH—N, 100 ng/ml FGF-8b (R&D Systems), 1 μg/ml Laminin and 200 μg/ml G418 (Invitrogen) for selection of neuronal precursors expressing Sox-1. The plates were put in an incubator that contained 2% Oxygen and were maintained in these conditions. During the 6-day selection period, the Neuroll media was changed daily. On day 6, the surviving neuronal precursor foci were dissociated with 0.05% Trypsin EDTA and the cells were plated at a density of 1.5×10^6 cells/100 mm Laminin coated dish in Neuroll-G418 medium. The cells were dissociated every other day for expansion, and prepared for Cryopreservation at passage 3 or 4. The crypreservation medium contained 50% KSR, 10% Dimethyl Sulfoxide (DMSO) (Sigma) and 40% Neurol-G418I medium. Neuronal precursors were crypreserved at a concentration of 4×10^6 cells/ml and 1 ml/cryovial in a controlled rate freezer overnight then transferred to an ultra-low freezer or liquid nitrogen for long-term storage.
Neuronal Differentiation: Cryopreserved ES cell-derived neuronal precursors were thawed by the rapid thaw method in a 37-degree water-bath. The cells were transferred from the cryovial to a 100 mm Laminin coated tissue culture dish that already contained Neuroll-G418 that had been equilibrated in a 2% Oxygen incubator. The media was changed with fresh Neuroll-G418 the next day. The cells were dissociated every other day as described above for expansion to generate enough cells to plate for the screen. For the screen, the cells were plated into 384-well poly-d-lysine coated tissue culture dishes (BD Biosciences) by the automated SelecT at a cell density of 6K cells/well in differentiation medium Neurolll that contained a 4:1 ratio of the NeuroBasalMedium/B27:D-MEM/F12/N2 supplemented with 1 μM cAMP (Sigma), 200 μM Ascorbic Acid (Sigma), 1 μg/ml Laminin (Invitrogen) and 10 ng/ml BDNF (R&D Systems). The plates were put in an incubator with 2% Oxygen and allowed to complete the differentiation process for 7 days. The cells could then be used over a 5-day period for the high throughput screen.
On the day of the assay, the FLIPR assay may be performed using the following methods: […]
Turning to `CC(C)S(=O)(=O)N[C@H]1CCOC[C@@H]1c1ccc(-c2ccccc2C#N)cc1` [Example 31, N-[(3R,4S)-3-(2′-cyanobiphenyl-4-yl)tetrahydro-2H-pyran-4-yl]propane-2-sulfonamide], the concentration giving a half-maximal response (EC50) was 0.318 µM.
For the molecule `CC(C)S(=O)(=O)N[C@@H]1CCOC[C@H]1c1ccc(-c2ccccc2C#N)cc1` [Example 32, N-[(3S,4R)-3-(2′-cyanobiphenyl-4-yl)tetrahydro-2H-pyran-4-yl]propane-2-sulfonamide], the EC50 was above 26.6 µM.
As to `CC(C)S(=O)(=O)N[C@@H]1CCOC[C@H]1c1ccc(-c2ccccc2)cc1` [Example 33, N-[(3S,4R)-3-biphenyl-4-yltetrahydro-2H-pyran-4-yl]propane-2-sulfonamide], the half-maximal effective concentration (EC50) was above 31.6 µM.
The figure for `CCOc1ccccc1-c1ccc([C@H]2COCC[C@@H]2NS(=O)(=O)C(C)C)cc1` [Example 34, N-[(3R,4S)-3-(2′-ethoxybiphenyl-4-yl)tetrahydro-2H-pyran-4-yl]propane-2-sulfonamide] is 0.22 µM; for `CCOc1ccccc1-c1ccc([C@@H]2COCC[C@H]2NS(=O)(=O)C(C)C)cc1` [Example 35, N-[(3S,4R)-3-(2′-ethoxybiphenyl-4-yl)tetrahydro-2H-pyran-4-yl]propane-2-sulfonamide] it is 4.57 µM.
The same measure for `CC(C)S(=O)(=O)N[C@H]1CCOC[C@@H]1c1ccc(-c2cccnc2)cc1` [Example 36, N-[(3R,4S)-3-(4-pyridin-3-ylphenyl)tetrahydro-2H-pyran-4-yl]propane-2-sulfonamide]: above 31.6 µM; for `CC(C)S(=O)(=O)N[C@@H]1CCOC[C@H]1c1ccc(-c2cccnc2)cc1` [Example 37, N-[(3S,4R)-3-(4-pyridin-3-ylphenyl)tetrahydro-2H-pyran-4-yl]propane-2-sulfonamide]: above 4.67 µM; for `CC(C)S(=O)(=O)N[C@H]1CCOC[C@@H]1c1ccc(-c2ccc(C#N)cc2)cc1` [Example 38, N-[(3R,4S)-3-(4′-cyanobiphenyl-4-yl)tetrahydro-2H-pyran-4-yl]propane-2-sulfonamide]: 1.04 µM.
As for `CC(C)S(=O)(=O)N[C@@H]1CCOC[C@H]1c1ccc(-c2ccc(C#N)cc2)cc1` [Example 39, N-[(3S,4R)-3-(4′-cyanobiphenyl-4-yl)tetrahydro-2H-pyran-4-yl]propane-2-sulfonamide], the EC50 was above 31.6 µM.
The figure for `CC(C)S(=O)(=O)N[C@H]1CCOC[C@@H]1c1ccc(-c2ccc(F)cc2C#N)cc1` [Example 40, N-[(3R,4S)-3-(2′-cyano-4′-fluorobiphenyl-4-yl)tetrahydro-2H-pyran-4-yl]propane-2-sulfonamide] is 0.255 µM; for `CC(C)S(=O)(=O)N[C@H]1CCOC[C@@H]1c1ccc(-c2ccc(C#N)s2)cc1` [Example 41, N-{(3R,4S)-3-[4-(5-cyano-2-thienyl)phenyl]tetrahydro-2H-pyran-4-yl}propane-2-sulfonamide] it is 0.826 µM; for `CC(C)S(=O)(=O)N[C@@H]1CCOC[C@H]1c1ccc(-c2ccc(C#N)s2)cc1` [Example 42, N-{(3S,4R)-3-[4-(5-cyano-2-thienyl)phenyl]tetrahydro-2H-pyran-4-yl}propane-2-sulfonamide] it is above 31.6 µM.
The figure for `CC(C)S(=O)(=O)N[C@@H]1CCCO[C@H]1c1ccc(-c2ccccc2)cc1` [Example 43, N-[(2S,3R)-2-biphenyl-4-yltetrahydro-2H-pyran-3-yl]propane-2-sulfonamide] is above 31.6 µM; for `CCOc1ccccc1-c1ccc([C@H]2OCCC[C@@H]2NS(=O)(=O)C(C)C)cc1` [Example 44, N-[(2R,3S)-2-(2′-ethoxybiphenyl-4-yl)tetrahydro-2H-pyran-3-yl]propane-2-sulfonamide] it is 0.493 µM; for `CCOc1ccccc1-c1ccc([C@@H]2OCCC[C@H]2NS(=O)(=O)C(C)C)cc1` [Example 45, N-[(2S,3R)-2-(2′-ethoxybiphenyl-4-yl)tetrahydro-2H-pyran-3-yl]propane-2-sulfonamide] it is above 9.61 µM.
The figure for `CC(C)S(=O)(=O)N[C@H]1CCCO[C@@H]1c1ccc(-c2ccccc2C#N)cc1` [Example 46, N-[(2R,3S)-2-(2′-cyanobiphenyl-4-yl)tetrahydro-2H-pyran-3-yl]propane-2-sulfonamide] is 1.24 µM.
Regarding `CC(C)S(=O)(=O)N[C@@H]1CCCO[C@H]1c1ccc(-c2ccccc2C#N)cc1` [Example 47, N-[(2S,3R)-2-(2′-cyanobiphenyl-4-yl)tetrahydro-2H-pyran-3-yl]propane-2-sulfonamide], the EC50 is 20.3 µM.
With `CC(C)S(=O)(=O)N[C@H]1CCCO[C@@H]1c1ccc(-c2ccc(C#N)s2)cc1` [Example 48, N-{(2R,3S)-2-[4-(5-cyano-2-thienyl)phenyl]tetrahydro-2H-pyran-3-yl}propane-2-sulfonamide], the EC50 was 5.64 µM.
The figure for `CC(C)S(=O)(=O)N[C@@H]1CCCO[C@H]1c1ccc(-c2ccc(C#N)s2)cc1` [Example 49, N-{(2S,3R)-2-[4-(5-cyano-2-thienyl)phenyl]tetrahydro-2H-pyran-3-yl}propane-2-sulfonamide] is above 31.6 µM; for `CCOc1ccccc1-c1ccc([C@H]2NC(=O)CC[C@@H]2NS(=O)(=O)C(C)C)cc1` [Example 50, N-[(2R,3S)-2-(2′-ethoxybiphenyl-4-yl)-6-oxopiperidin-3-yl]propane-2-sulfonamide] it is 1.71 µM.
The same measure for `CC(C)S(=O)(=O)N[C@@H]1CCC(=O)N[C@H]1c1ccc(-c2ccc(C#N)s2)cc1` [Example 51, N-{(2S,3R)-2-[4-(5-cyano-2-thienyl)phenyl]-6-oxopiperidin-3-yl}propane-2-sulfonamide]: 1.71 µM; for `CC(C)S(=O)(=O)N[C@@H]1CCC(=O)N[C@H]1c1ccc(-c2ccccc2C#N)cc1` [Example 52, N-[(2S,3R)-2-(2′-cyanobiphenyl-4-yl)-6-oxopiperidin-3-yl]propane-2-sulfonamide]: above 31.6 µM.
The same measure for `CC(C)S(=O)(=O)N[C@H]1CCC(=O)N[C@@H]1c1ccc(-c2ccc(C#N)s2)cc1` [Example 53, N-{(2R,3S)-2-[4-(5-cyano-2-thienyl)phenyl]-6-oxopiperidin-3-yl}propane-2-sulfonamide]: 2.36 µM; for `CC(C)S(=O)(=O)N[C@H]1CCC(=O)N[C@@H]1c1ccc(-c2ccccc2C#N)cc1` [Example 54, N-[(2R,3S)-2-(2′-cyanobiphenyl-4-yl)-6-oxopiperidin-3-yl]propane-2-sulfonamide]: 2.29 µM; for `CC(C)S(=O)(=O)N[C@H]1COCC[C@H]1c1ccc(-c2ccccc2)cc1` [Example 55, N-[(3R,4S)-4-biphenyl-4-yltetrahydro-2H-pyran-3-yl]propane-2-sulfonamide]: above 31.6 µM.
For the molecule `CC(C)S(=O)(=O)N[C@@H]1COCC[C@@H]1c1ccc(-c2ccccc2C#N)cc1` [Example 56, N-[(3S,4R)-4-(2′-cyanobiphenyl-4-yl)tetrahydro-2H-pyran-3-yl]propane-2-sulfonamide], the EC50 is above 31.6 µM.
Consider `CC(C)S(=O)(=O)N[C@H]1COCC[C@H]1c1ccc(-c2ccccc2C#N)cc1` [Example 57, N-[(3R,4S)-4-(2′-cyanobiphenyl-4-yl)tetrahydro-2H-pyran-3-yl]propane-2-sulfonamide], for which the concentration giving a half-maximal response (EC50) turned out to be 0.748 µM.
As to `CC(C)S(=O)(=O)N[C@@H]1COCC[C@@H]1c1ccc(-c2ccc(C#N)s2)cc1` [Example 58, N-{(3S,4R)-4-[4-(5-cyano-2-thienyl)phenyl]tetrahydro-2H-pyran-3-yl}propane-2-sulfonamide], the EC50 was above 31.6 µM.
